From patent US9169199B2, “Cycloalkyl guanidine F1F0-ATPase inhibitors and therapeutic uses thereof” (Lycera Corporation, priority 2010, dated 2015)

How the values were obtained:
[1] = target: T1, F1F0-ATPase (Bos taurus, UniProt P13621); test: Inhibition of ATP synthesis by the F1F0-ATPase; assay type: biochemical
T1 construct: from tissue
Method: (§1) Compounds in Example 4 above were tested for activity against F1F0-ATPase by measuring ATP synthesis. In addition, the compounds were assessed for cytotoxicity in Ramos cells. Inhibition of ATP synthesis by the F1F0-ATPase and cytotoxicity in Ramos cells were measured according to the procedures described in K. M. Johnson et al. Chemistry & Biology 2005, 12, 485-496.

[2] = tested on: Ramos cells; test: Cytotoxicity in Ramos cells; assay type: cell-based; settings: Homo sapiens, read-out: Ramos cell EC50
Method: as §1

Structure (SMILES) | IC50 [1] | EC50 [2]
CC(C)(C)c1ccccc1N/C(=N\C(=O)c1ccc(C(F)(F)F)cc1)N[C@H]1CC[C@H](O)CC1 [Compound 1] | < 10 µM | < 10 µM
O=C(/N=C(\Nc1cccc(C(F)(F)F)c1)N[C@H]1CC[C@H](O)CC1)c1ccc(C(F)(F)F)cc1 [Compound 2] | < 10 µM | < 10 µM
O=C(/N=C(/Nc1cc(F)cc(Cl)c1)N[C@H]1CC[C@H](O)CC1)c1ccc(C(F)(F)F)cc1 [Compound 7] | < 10 µM | < 10 µM
O=C(/N=C(\NCc1ccccc1C(F)(F)F)N[C@H]1CC[C@H](O)CC1)c1ccc(F)c(F)c1 [Compound 16] | > 10 µM | < 10 µM
O=C(/N=C(/NCc1ccccc1C(F)(F)F)N[C@H]1CC[C@H](O)CC1)c1ccc(C(F)(F)F)cc1 [Compound 17] | < 10 µM | < 10 µM
O=C(/N=C(/Nc1ccccc1C1CC1)N[C@H]1CC[C@H](O)CC1)c1ccc(C(F)(F)F)cc1 [Compound 21] | < 10 µM | < 10 µM
O=C(/N=C(/Nc1ccccc1C1CC1)N[C@H]1CC[C@H](O)CC1)c1ccc(Cl)cc1 [Compound 22] | > 10 µM | > 10 µM
O=C(/N=C(/Nc1ccccc1C1CC1)N[C@H]1CC[C@H](O)CC1)c1ccc(F)c(F)c1 [Compound 23] | > 10 µM | > 10 µM
O=C(/N=C(/Nc1cc(F)cc(Cl)c1)NC1CCC(O)CC1)c1cccc(Cl)c1 (stereo not drawn) [Compound 26] |  | < 10 µM
O=C(/N=C(/Nc1cccc(C(F)(F)F)c1)N[C@H]1CC[C@H](O)CC1)c1ccc(Cl)cc1 [Compound 29] | < 10 µM | < 10 µM
O=C(/N=C(/Nc1cccc(C(F)(F)F)c1)N[C@H]1CC[C@H](O)CC1)c1cccc(C(F)(F)F)c1 [Compound 30] | < 10 µM | < 10 µM
O=C(/N=C(/NCc1ccc(Cl)cc1)N[C@H]1CC[C@H](O)CC1)c1ccc(F)c(F)c1 [Compound 31] | > 10 µM | > 10 µM
O=C(/N=C(/NCc1ccccc1C(F)(F)F)N[C@H]1CC[C@H](O)CC1)c1ccc(F)c(F)c1 [Compound 32] |  | > 10 µM
O=C(/N=C(/NCc1cccc(C(F)(F)F)c1)N[C@H]1CC[C@H](O)CC1)c1ccc(F)c(F)c1 [Compound 33] | > 10 µM | < 10 µM
O=C(/N=C(/NCc1ccc(C(F)(F)F)cc1)N[C@H]1CC[C@H](O)CC1)c1ccc(F)c(F)c1 [Compound 34] | > 10 µM | < 10 µM
O=C(/N=C(/NCc1ccccc1F)N[C@H]1CC[C@H](O)CC1)c1ccc(F)c(F)c1 [Compound 35] | > 10 µM | > 10 µM
O=C(/N=C(/NCc1cccc(F)c1)N[C@H]1CC[C@H](O)CC1)c1ccc(F)c(F)c1 [Compound 36] | > 10 µM | > 10 µM
O=C(/N=C(/NCc1ccc(F)cc1)N[C@H]1CC[C@H](O)CC1)c1ccc(F)c(F)c1 [Compound 37] | > 10 µM | > 10 µM
O=C(/N=C(/NCc1cc(F)ccc1F)N[C@H]1CC[C@H](O)CC1)c1ccc(F)c(F)c1 [Compound 38] | > 10 µM | > 10 µM
O=C(/N=C(/NCc1ccc(F)c(F)c1)N[C@H]1CC[C@H](O)CC1)c1ccc(F)c(F)c1 [Compound 39] | > 10 µM | < 10 µM
O=C(/N=C(/NCc1cccc(F)c1F)N[C@H]1CC[C@H](O)CC1)c1ccc(F)c(F)c1 [Compound 40] | > 10 µM | > 10 µM
O=C(/N=C(/NCc1ccc(F)cc1F)N[C@H]1CC[C@H](O)CC1)c1ccc(F)c(F)c1 [Compound 41] | > 10 µM | > 10 µM
O=C(/N=C(/NCc1cc(F)cc(F)c1)N[C@H]1CC[C@H](O)CC1)c1ccc(F)c(F)c1 [Compound 42] | > 10 µM | > 10 µM
O=C(/N=C(/NCc1ccc(F)cc1Cl)N[C@H]1CC[C@H](O)CC1)c1ccc(F)c(F)c1 [Compound 43] | > 10 µM | > 10 µM
O=C(/N=C(/NCc1ccc(F)c(Cl)c1)N[C@H]1CC[C@H](O)CC1)c1ccc(F)c(F)c1 [Compound 44] | > 10 µM | < 10 µM
O=C(/N=C(/NCc1ccc(Cl)c(F)c1)N[C@H]1CC[C@H](O)CC1)c1ccc(F)c(F)c1 [Compound 45] | < 10 µM | < 10 µM
CCOC(=O)N[C@H]1CC[C@H](N/C(=N\C(=O)c2ccc(F)c(F)c2)NCc2ccc(Cl)cc2)CC1 [Compound 49] | < 10 µM | < 10 µM
CCOC(=O)N[C@H]1CC[C@H](N/C(=N/C(=O)c2ccc(F)c(F)c2)NC2CCCC2)CC1 [Compound 70] |  | > 10 µM
O=C(/N=C(/Nc1cc(F)cc(Cl)c1)N[C@H]1CCCC[C@@H]1O)c1ccc(C(F)(F)F)cc1 [Compound 127] |  | < 10 µM

Second part, led by results:

IC50 [1] | Structure (SMILES) | EC50 [2]
< 10 µM | CS(=O)(=O)N[C@H]1CC[C@H](N/C(=N\C(=O)c2ccc(F)c(F)c2)Nc2cccc(C(F)(F)F)c2)CC1 [Compound 3] | < 10 µM
< 10 µM | O=C(/N=C(/Nc1cccc(C(F)(F)F)c1)N[C@H]1CC[C@H](O)CC1)c1ccc(F)c(F)c1 [Compound 4] | < 10 µM
> 10 µM | O=C(/N=C(/Nc1cccc(Cl)c1)N[C@H]1CC[C@H](O)CC1)c1ccc(F)c(F)c1 [Compound 5] | < 10 µM
< 10 µM | O=C(/N=C(/Nc1cc(F)cc(Cl)c1)N[C@H]1CC[C@H](O)CC1)c1ccc(F)c(F)c1 [Compound 6] | < 10 µM
< 10 µM | O=C(/N=C(/Nc1cccc(Cl)c1)N[C@H]1CC[C@H](O)CC1)c1ccc(C(F)(F)F)cc1 [Compound 8] | < 10 µM
< 10 µM | O=C(/N=C(/Nc1cc(F)cc(Cl)c1)N[C@H]1CC[C@H](Nc2ncccn2)CC1)c1ccc(F)c(F)c1 [Compound 9] | < 10 µM
< 10 µM | CCOC(=O)N[C@H]1CC[C@H](N/C(=N/C(=O)c2ccc(F)c(F)c2)Nc2cc(F)cc(Cl)c2)CC1 [Compound 10] | < 10 µM
< 10 µM | COC(=O)N[C@H]1CC[C@H](N/C(=N/C(=O)c2ccc(F)c(F)c2)Nc2cc(F)cc(Cl)c2)CC1 [Compound 11] | < 10 µM
> 10 µM | N[C@H]1CC[C@H](N/C(=N/C(=O)c2ccc(F)c(F)c2)Nc2cc(F)cc(Cl)c2)CC1 [Compound 12] | < 10 µM
> 10 µM | N[C@H]1CC[C@H](N/C(=N/C(=O)c2ccc(F)c(F)c2)Nc2cccc(C(F)(F)F)c2)CC1 [Compound 13] | < 10 µM
< 10 µM | CCOC(=O)N[C@H]1CC[C@H](N/C(=N/C(=O)c2ccc(F)c(F)c2)Nc2cccc(C(F)(F)F)c2)CC1 [Compound 14] | < 10 µM
< 10 µM | COC(=O)N[C@H]1CC[C@H](N/C(=N/C(=O)c2ccc(F)c(F)c2)Nc2cccc(C(F)(F)F)c2)CC1 [Compound 15] | < 10 µM
< 10 µM | CCOC(=O)N[C@H]1CC[C@H](N/C(=N\C(=O)c2ccc(C(F)(F)F)cc2)Nc2cccc(Cl)c2)CC1 [Compound 18] | < 10 µM
< 10 µM | CCOC(=O)N[C@H]1CC[C@H](N/C(=N/C(=O)c2ccc(F)c(F)c2)Nc2cccc(Cl)c2)CC1 [Compound 19] | < 10 µM
< 10 µM | O=C(/N=C(/Nc1cccc(Cl)c1)N[C@H]1CC[C@H](Nc2ncccn2)CC1)c1ccc(F)c(F)c1 [Compound 20] | < 10 µM
< 10 µM | O=C(/N=C(/Nc1cccc(C(F)(F)F)c1)N[C@H]1CC[C@H](O)CC1)c1cccc(Cl)c1 [Compound 24] | < 10 µM
> 10 µM | O=C(/N=C(/Nc1cccc(Cl)c1)N[C@H]1CC[C@H](O)CC1)c1cccc(Cl)c1 [Compound 25] | < 10 µM
< 10 µM | O=C(/N=C(/Nc1cc(F)cc(Cl)c1)N[C@H]1CC[C@H](O)CC1)c1cccc(Cl)c1 [Compound 26] | 
> 10 µM | O=C(/N=C(/Nc1cccc(Cl)c1)N[C@H]1CC[C@H](O)CC1)c1ccc(Cl)cc1 [Compound 27] | < 10 µM
> 10 µM | O=C(/N=C(/Nc1cc(F)cc(Cl)c1)N[C@H]1CC[C@H](O)CC1)c1ccc(Cl)cc1 [Compound 28] | < 10 µM
> 10 µM | O=C(/N=C(/NCc1ccc(Cl)cc1F)N[C@H]1CC[C@H](O)CC1)c1ccc(F)c(F)c1 [Compound 46] | < 10 µM
< 10 µM | CCOC(=O)N[C@H]1CC[C@H](N/C(=N\C(=O)c2ccc(F)c(F)c2)NCc2ccccc2Cl)CC1 [Compound 47] | < 10 µM
< 10 µM | CCOC(=O)N[C@H]1CC[C@H](N/C(=N\C(=O)c2ccc(F)c(F)c2)NCc2cccc(Cl)c2)CC1 [Compound 48] | < 10 µM
